This assay can be described thus: Antagonist activity at CXCR3 in rat leukocytes assessed as inhibition of ITAC-induced cell migration by flow cytometry.

Turning to `O=C([C@@H]1C=C2c3cccc4[nH]cc(c34)C[C@H]2N(C(=O)Nc2ccccc2)C1)N1CCOCC1`, the IC50 was found to be 78 nM.

In the case of `O=C([C@@H]1C=C2c3cccc4[nH]cc(c34)C[C@H]2N(C(=O)Nc2ccccc2)C1)N1CCCC1`, the IC50 turned out to be 19 nM.

On to `O=C([C@@H]1C=C2c3cccc4[nH]cc(c34)C[C@H]2N(C(=O)Nc2ccccc2)C1)N1CCCCC1`, for which the 50% inhibitory concentration (IC50) turned out to be 13 nM.

Regarding `CCN(CC)C(=O)[C@@H]1C=C2c3cccc4[nH]cc(c34)C[C@H]2N(C(=O)Nc2ccccc2)C1` [(6aR,9R)-N9,N9-diethyl-N7-phenyl-6,6a,8,9-tetrahydroindolo[4,3-fg]quinoline-7,9(4H)-dicarboxamide], the IC50 was 74 nM.

For orientation: IC50 means the concentration at which inhibition is half-maximal.

The record behind these values is BindingDB's records for doi:10.1016/j.bmcl.2011.06.070 (Novartis Institutes For Biomedical Research, 2011).
